The values below come from paper PMC10815823 (Genes, 2024).

Molecules are shown by their SMILES. Read-outs that look alike come from different tables or passages of the source.

The Cmax is the peak of the concentration-time curve. One may read the Tmax as the time at which the peak concentration occurs.

A short description of data set [1]: single-oral-dose pharmacokinetic study, plasma AVA and metabolite concentrations in pediatric hypercholesterolemia stratified by SLCO1B1 c.521T>C genotype. It is filed as in vivo, human. Particulars: for AUC(0-t) / Cmax / Tmax: human, plasma, 10 mg; for Tmax: median (range). How it is done:
A screening physical examination (including sexual maturity rating via Tanner Staging) was performed prior to ingesting AVA. […] Samples were immediately centrifuged at 4 °C for 10 min at 600 g. Plasma was removed and stored at -80 °C until the analysis. […] All analytical reference compounds were purchased from Toronto Research Chemicals at their highest purity. Plasma proteins were precipitated with acetonitrile and centrifuged, and the filtrates were transferred to a new set of clean, labeled microcentrifuge tubes. An aliquot of the extracts was then transferred to a 96-well plate and analyzed by ultra-performance liquid chromatography tandem mass spectrometry (UPLC-MS/MS) with positive-ion electrospray ionization using multiple-reaction monitoring (MRM). […] Gradient elution was optimized with an acetonitrile-water-MeOH gradient: mobile phase A: water: MeOH: acetic acid (v/v/v), 90:10:0.1; mobile phase B: acetonitrile: methanol: acetic acid (v/v/v), 60:40:0.1. […] All the data acquisition and analysis were carried out by Masslynx 4.2 software. […] The individual peak plasma concentration (Cmax) and time to maximal concentration (Tmax) were obtained by direct examination of the plasma AVA concentration versus hour profile. The area under the plasma concentration versus time curve during the sampling period (AUC0-n) was calculated using the mixed log-linear method, where n refers to the final sampling time with quantifiable plasma AVA or AVA metabolite concentrations. […] Pharmacokinetic parameters were examined in JMP® version 14 (SAS, Cary, NC, USA). Pharmacokinetic parameters reflective of plasma AVA concentrations (Cmax, AUC0-n) and the SLCO1B1 genotype ([…] vs. T/C and C/C) were dependent variables and independent variables, respectively. The Kruskal-Wallis test was leveraged to compare the pharmacokinetic parameters related to genotype groups and demographics. Linear regression to examine the association between the AVA AUCn and […] genotype groups, adjusting for BMI z-score, sex and Tanner score, was performed. […] A single Tanner score was computed by averaging each participant's Tanner breast/testicular and Tanner public hair stage scores. AVA AUC0-24 was first modeled as a function of BMI z-score, sex and Tanner score to estimate the proportion of variability that could be accounted for by these participant characteristics. Then, the count of […] alleles was added to the model to estimate the additional variability accounted for. […] Therefore, the Cmax and AUC were normalized to a dose for each individual participant by dividing the exposure parameter value by the actual mg/kg dose received, then multiplying by the mean mg/kg dose for the entire cohort (e.g., participant AUC (ng·hr/mL)/participant dose (mg/kg) × cohort mean dose (mg/kg)).

The conditions of data set [2]: pediatric cohorts; cited from earlier work.
The mark [3] stands for this setting: female, oral, Table S3, Gender: Female, mean (± SD), read-out: AUC0-24.
Where [4] appears, read: oral, Table S1, entire cohort, median (IQR).
Setting [5] is: oral, Table S1, entire cohort, median (IQR), read-out: AUC 0-24.
Where [6] appears, read: oral, Table S3, Ethnicity: African-American, mean (± SD), read-out: AUC0-24.
[7] abbreviates: oral, Table S3, Ethnicity: White, Hispanic, mean (± SD), read-out: AUC0-24.
Setting [8] is: oral, Table S3, Ethnicity: White, non-Hispanic, mean (± SD), read-out: AUC0-24.
The mark [9] stands for this setting: oral, Table S3, Tanner Breast/Testicular Stage 2, mean (± SD), read-out: AUC0-24.
Setting [10] is: oral, Table S3, Tanner Breast/Testicular Stage 3, read-out: AUC0-24.
[11] abbreviates: oral, Table S3, Tanner Breast/Testicular Stage 4, mean (± SD), read-out: AUC0-24.
[12] abbreviates: oral, Table S3, Tanner Breast/Testicular Stage 5, mean (± SD), read-out: AUC0-24.
Setting [13] is: oral, Table S3, Tanner Pubic Stage 1, read-out: AUC0-24.
The mark [14] stands for this setting: oral, Table S3, Tanner Pubic Stage 2, mean (± SD), read-out: AUC0-24.
Setting [15] is: oral, Table S3, Tanner Pubic Stage 3, read-out: AUC0-24.
Setting [16] is: oral, Table S3, Tanner Pubic Stage 4, mean (± SD), read-out: AUC0-24.
Setting [17] is: oral, Table S3, Tanner Pubic Stage 5, mean (± SD), read-out: AUC0-24.
Where [18] appears, read: po, SLCO1B1 c.521C/C (n = 2), single oral 10 mg dose, mean (±SD).
Setting [19] is: po, SLCO1B1 c.521C/C (n = 2), single oral 10 mg dose.
Setting [20] is: po, SLCO1B1 c.521C/C (n = 2), single oral 10 mg dose, mean (±SD), read-out: AUC0–24.
[21] abbreviates: po, SLCO1B1 c.521T/C (n = 13), single oral 10 mg dose, mean (±SD).
Where [22] appears, read: po, SLCO1B1 c.521T/C (n = 13), single oral 10 mg dose.
Where [23] appears, read: po, SLCO1B1 c.521T/C (n = 13), single oral 10 mg dose, mean (±SD), read-out: AUC0–24.
Where [24] appears, read: po, SLCO1B1 c.521T/T (n = 13), single oral 10 mg dose, mean (±SD).
Setting [25] is: po, SLCO1B1 c.521T/T (n = 13), single oral 10 mg dose.
Setting [26] is: po, SLCO1B1 c.521T/T (n = 13), single oral 10 mg dose, mean (±SD), read-out: AUC0–24.
Setting [27] is: po, entire cohort (n = 28), median (IQR), single oral 10 mg dose.
Where [28] appears, read: po, entire cohort (n = 28), median (IQR), single oral 10 mg dose, read-out: AUC0–24.
[29] abbreviates: male, oral, Table S3, Gender: Male, mean (± SD), read-out: AUC0-24.

Consider `CC(C)c1c(C(=O)Nc2ccccc2O)c(-c2ccccc2)c(-c2ccc(F)cc2)n1CCC1CC(O)CC(=O)O1` (stereo not shown) [2-Hydroxy Atorvastatin Lactone, 2-hydroxyatorvastatin lactone], for which the “effect of SLCO1B1 c.521T>C genotype on exposure” value in data set [1] (Kruskal–Wallis across genotype groups) was “not affected by genotype”. For the same compound, the AUC(0-t) in data set [1] (setting [3]) was 18 ng·h/mL; in data set [1] (setting [5]) it was 14.5 ng·h/mL; in data set [1] (setting [6]) it was 16.7 ng·h/mL; in data set [1] (setting [7]) it was 17.2 ng·h/mL; in data set [1] (setting [8]), 16.4 ng·h/mL; in data set [1] (setting [9]), 31.9 ng·h/mL. Also, the AUC(0-t) in data set [1] (setting [10]) was found to be 23.4 ng·h/mL; in data set [1] (setting [11]), 13.4 ng·h/mL; in data set [1] (setting [12]) it was 12.9 ng·h/mL; in data set [1] (setting [13]) it was 39.2 ng·h/mL; in data set [1] (setting [14]), 32.7 ng·h/mL; in data set [1] (setting [15]), 12.7 ng·h/mL. Also, the AUC(0-t) amounted to 8.5 ng·h/mL in data set [1] (setting [16]); 13.7 ng·h/mL in data set [1] (setting [17]); 31 ng·h/mL in data set [1] (setting [20]); 17.4 ng·h/mL in data set [1] (setting [23]); 14 ng·h/mL in data set [1] (setting [26]); 14.5 ng·h/mL in data set [1] (setting [28]). The AUC(0-t) in data set [1] (setting [29]) came to 15.7 ng·h/mL. Besides, the Cmax was 1.1 ng/mL in data set [1] (setting [4]); 1.9 ng/mL in data set [1] (setting [18]); 1.3 ng/mL in data set [1] (setting [21]); 1 ng/mL in data set [1] (setting [24]); 1.1 ng/mL in data set [1] (setting [27]). Further, the time to peak (Tmax) in data set [1] (setting [19]) was 7 h; in data set [1] (setting [22]), 5 h; in data set [1] (setting [25]), 7 h.
In the case of `CC(C)c1c(C(=O)Nc2ccccc2O)c(-c2ccccc2)c(-c2ccc(F)cc2)n1CC[C@@H](O)C[C@@H](O)CC(=O)O` [2-Hydroxy Atorvastatin, 2-hydroxyatorvastatin], the AUC(0-t) in data set [1] (setting [3]) was determined as 7.3 ng·h/mL; in data set [1] (setting [5]), 6.4 ng·h/mL; in data set [1] (setting [6]), 6.1 ng·h/mL; in data set [1] (setting [7]), 7.6 ng·h/mL; in data set [1] (setting [8]), 6.9 ng·h/mL; in data set [1] (setting [9]) it was 6 ng·h/mL. The AUC(0-t) in data set [1] (setting [10]) was 6 ng·h/mL; in data set [1] (setting [11]), 4.7 ng·h/mL; in data set [1] (setting [12]), 8.1 ng·h/mL; in data set [1] (setting [13]) it was 5.1 ng·h/mL; in data set [1] (setting [14]) it was 6.7 ng·h/mL; in data set [1] (setting [15]), 4.1 ng·h/mL. The AUC(0-t) amounted to 3.6 ng·h/mL in data set [1] (setting [16]); 8 ng·h/mL in data set [1] (setting [17]); 10.8 ng·h/mL in data set [1] (setting [20]); 7.5 ng·h/mL in data set [1] (setting [23]); 6.2 ng·h/mL in data set [1] (setting [26]); 6.4 ng·h/mL in data set [1] (setting [28]). In addition, the AUC(0-t) in data set [1] (setting [29]) was 7 ng·h/mL. Also, the Cmax was 0.7 ng/mL in data set [1] (setting [4]); 1.3 ng/mL in data set [1] (setting [18]); 0.8 ng/mL in data set [1] (setting [21]); 0.7 ng/mL in data set [1] (setting [24]); 0.7 ng/mL in data set [1] (setting [27]). Moreover, the time to peak (Tmax) in data set [1] (setting [19]) was found to be 5 h; in data set [1] (setting [22]), 3 h; in data set [1] (setting [25]), 2 h.
Consider `CC(C)c1c(C(=O)Nc2ccccc2)c(-c2ccccc2)c(-c2ccc(F)cc2)n1CC[C@@H]1C[C@@H](O)CC(=O)O1` [Atorvastatin Lactone, atorvastatin lactone], for which the “mean Cmax fold higher, c.521C/C relative to c.521T/T” value in data set [1] (c.521C/C (n = 2) vs c.521T/T (n = 13)) was found to be 2.1 fold. Also, the “mean Cmax fold higher, c.521T/C relative to c.521T/T” value in data set [1] (c.521T/C (n = 13) vs c.521T/T (n = 13)) is 1.6 fold. For the same compound, the “mean AUC0–24 fold higher, c.521T/C relative to c.521T/T” value in data set [1] (c.521T/C vs reference genotype) came to 1.8 fold. For the same compound, the AUC(0-t) in data set [1] (setting [3]) turned out to be 12.1 ng·h/mL; in data set [1] (setting [5]), 8.7 ng·h/mL; in data set [1] (setting [6]) it was 11.4 ng·h/mL; in data set [1] (setting [7]), 13.2 ng·h/mL; in data set [1] (setting [8]) it was 10 ng·h/mL; in data set [1] (setting [9]) it was 23.3 ng·h/mL. Also, the AUC(0-t) in data set [1] (setting [10]) was 17.3 ng·h/mL; in data set [1] (setting [11]) it was 7.9 ng·h/mL; in data set [1] (setting [12]), 8.5 ng·h/mL; in data set [1] (setting [13]), 15.4 ng·h/mL; in data set [1] (setting [14]), 27.7 ng·h/mL; in data set [1] (setting [15]), 7.8 ng·h/mL. Further, the AUC(0-t) was found to be 5 ng·h/mL in data set [1] (setting [16]); 8.9 ng·h/mL in data set [1] (setting [17]); 27.8 ng·h/mL in data set [1] (setting [20]); 13 ng·h/mL in data set [1] (setting [23]); 7.2 ng·h/mL in data set [1] (setting [26]); 8.7 ng·h/mL in data set [1] (setting [28]). Also, in data set [1] (setting [29]), the AUC(0-t) is 10.7 ng·h/mL. Further, the maximum concentration (Cmax) in data set [1] (setting [4]) was 0.9 ng/mL; in data set [1] (setting [18]), 1.5 ng/mL; in data set [1] (setting [21]), 1.1 ng/mL; in data set [1] (setting [24]), 0.7 ng/mL; in data set [1] (setting [27]), 0.9 ng/mL. Moreover, the Tmax was 6 h in data set [1] (setting [19]), 4 h in data set [1] (setting [22]) and 2.5 h in data set [1] (setting [25]).
In the case of `CC(C)c1c(C(=O)Nc2ccccc2)c(-c2ccccc2)c(-c2ccc(F)cc2)n1CC[C@@H](O)C[C@@H](O)CC(=O)O` [Atorvastatin, reference compound], the “participants with secondary peaking suggestive of entero-hepatic recirculation” value in data set [1] (12 of 28 participants) came to 43%. The adverse events entry in data set [1] (single oral 10 mg dose, 28 participants) is listed as “No adverse events were reported”.
Regarding `CC[C@H](C)C(=O)O[C@H]1C[C@H](O)C=C2C=C[C@H](C)[C@H](CC[C@@H](O)C[C@@H](O)CC(=O)O)[C@H]21` [pravastatin], in data set [2], the “within-c.521T>C-genotype variability in plasma statin concentration” value was 8- to 17 fold.
